Data on 25 compounds can be found in article PMC10527105, “Chirality Matters: Fine-Tuning of Novel Monoamine Reuptake Inhibitors Selectivity through Manipulation of Stereochemistry” (Biomolecules, 2023).

SMILES strings stand for the structures. Like-named read-outs stand apart in the source and are kept apart here.

Format in all cases: cell-based
The target of assay [1] is T1, human dopamine transporter/SLC6A3 (DAT) (Homo sapiens, UniProt Q01959).
T1 construct: expressed in transfected cells; host or cells: HEK293
The assay can be described thus: Cellular uptake experiments: [3H]-dopamine reuptake inhibition in transporter-expressing HEK293 cells. As to conditions: for IC50: cells stably expressing DAT, [3H]-dopamine 1 µM, screening cut-off 50 µM. As for the experimental part: (§1) Cell culture. Human embryonic kidney (HEK) 293 or SK-N-MC (human neuroblastoma) cells were grown in minimum essential medium with Earle’s salts and L-glutamine, 10% heat-inactivated fetal bovine serum, and 50 mg/L gentamicin. Cells were grown in 100- or 60-mm diameter tissue culture dishes (polystyrene, Falcon) at 37 °C under an atmosphere of 5% CO2/95% air. The human dopamine transporter/SLC6A3 (DAT), noradrenaline transporter/SLC6A2 (NET), or human serotonin transporter/SLC6A4 (SERT) cDNA was stably expressed using methods as described previously.
(§2) Cellular uptake experiments. The transporter-expressing HEK293 cells were seeded in poly-D-lysine-coated 24-well plates (1 × 10^5 cells/well) and, one day later, each well was washed with 0.5 mL uptake buffer and incubated with 0.5 mL buffer containing various concentrations of the drugs. Uptake was started by the addition of [^3H]-dopamine, [^3H]-noradrenaline, or [^3H]-serotonin at a final concentration of 1 µM (specific activity 0.14 Ci/mmol) after 5 min of preincubation. After incubation for 2.5 min (SERT-cells: 5 min) at 25 °C, it was stopped by aspirating the uptake buffer and washing each well twice with 1 mL ice-cold buffer. Nonspecific uptake was determined in the presence of 10 µM mazindol (DAT- and NET-cells) or 10 µM clomipramine (SERT-cells). The radioactivity remaining in each well was determined by incubating with 0.4 mL 1% sodium dodecyl sulphate and transferring this solution into scintillation vials containing 3 mL of scintillation cocktail (Ultima Gold MV, Packard, Dovners Grove, IL, USA). The uptake buffer consisted of (mmol/L): 4 Tris–HCl; 6.25 4-(2-hydroxyethyl)-1-piperazineethanesulfonic acid (HEPES); 120 NaCl; 5 KCl; 1.2 CaCl2; 1.2 MgSO4; 5.6 D-glucose; 0.5 ascorbic acid; pH 7.1.

For assay [2], the target named is T2, noradrenaline transporter/SLC6A2 (NET) (Homo sapiens, UniProt P23975).
T2 construct: expressed in transfected cells; host or cells: HEK293
Nature of the assay: Cellular uptake experiments: [3H]-noradrenaline reuptake inhibition in transporter-expressing HEK293 cells. As for the experimental part:
as §1, §2

Assay [3] concerns the target T3, human serotonin transporter/SLC6A4 (SERT) (Homo sapiens, UniProt P31645).
T3 construct: expressed in transfected cells; host or cells: HEK293
Nature of the assay: Cellular uptake experiments: [3H]-serotonin reuptake inhibition in transporter-expressing HEK293 cells. As for the experimental part:
as §1, §2

Where [4] appears, read: read-out: Reuptake Inhibition (IC50 ± SE, µM) DAT.
Setting [5] is: cells stably expressing NET, [3H]-noradrenaline 1 µM, screening cut-off 50 µM, read-out: Reuptake Inhibition (IC50 ± SE, µM) NET.
Where [6] appears, read: cells stably expressing SERT; [3H]-serotonin 1 µM; screening cut-off 50 µM; read-out: Reuptake Inhibition (IC50 ± SE, µM) SERT.
Where [7] appears, read: Reuptake Inhibition (IC50 ± SE, µM) DAT.
Setting [8] is: Reuptake Inhibition (IC50 ± SE, µM) NET, cells stably expressing NET, [3H]-noradrenaline 1 µM, screening cut-off 50 µM.
The mark [9] stands for this setting: Reuptake Inhibition (IC50 ± SE, µM) SERT, cells stably expressing SERT; [3H]-serotonin 1 µM; screening cut-off 50 µM.
Where [10] appears, read: read-out: Reuptake Inhibition (IC50 ± SE, µM) NET, cells stably expressing NET, [3H]-noradrenaline 1 µM, screening cut-off 50 µM.
Where [11] appears, read: read-out: Reuptake Inhibition (IC50 ± SE, µM) SERT; cells stably expressing SERT; [3H]-serotonin 1 µM; screening cut-off 50 µM.
The mark [12] stands for this setting: at 50 µM / tested concentration range.

T1 sequence (Q01959 whole entry): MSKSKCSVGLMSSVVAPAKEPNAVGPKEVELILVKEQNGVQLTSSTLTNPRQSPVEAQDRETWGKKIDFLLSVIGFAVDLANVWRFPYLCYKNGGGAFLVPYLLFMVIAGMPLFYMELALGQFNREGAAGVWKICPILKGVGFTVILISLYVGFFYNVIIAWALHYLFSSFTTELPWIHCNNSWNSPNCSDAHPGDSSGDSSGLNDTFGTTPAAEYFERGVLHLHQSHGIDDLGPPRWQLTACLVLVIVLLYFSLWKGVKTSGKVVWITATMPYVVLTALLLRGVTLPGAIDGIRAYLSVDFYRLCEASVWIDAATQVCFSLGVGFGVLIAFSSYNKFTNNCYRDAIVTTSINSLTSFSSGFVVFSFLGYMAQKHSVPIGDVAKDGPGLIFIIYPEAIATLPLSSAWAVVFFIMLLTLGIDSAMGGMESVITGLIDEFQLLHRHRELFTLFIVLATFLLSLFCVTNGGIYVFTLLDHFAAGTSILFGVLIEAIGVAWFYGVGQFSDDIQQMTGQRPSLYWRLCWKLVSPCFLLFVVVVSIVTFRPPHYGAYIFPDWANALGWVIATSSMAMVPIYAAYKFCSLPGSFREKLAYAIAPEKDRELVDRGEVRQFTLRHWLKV
T2 sequence (P23975 whole entry): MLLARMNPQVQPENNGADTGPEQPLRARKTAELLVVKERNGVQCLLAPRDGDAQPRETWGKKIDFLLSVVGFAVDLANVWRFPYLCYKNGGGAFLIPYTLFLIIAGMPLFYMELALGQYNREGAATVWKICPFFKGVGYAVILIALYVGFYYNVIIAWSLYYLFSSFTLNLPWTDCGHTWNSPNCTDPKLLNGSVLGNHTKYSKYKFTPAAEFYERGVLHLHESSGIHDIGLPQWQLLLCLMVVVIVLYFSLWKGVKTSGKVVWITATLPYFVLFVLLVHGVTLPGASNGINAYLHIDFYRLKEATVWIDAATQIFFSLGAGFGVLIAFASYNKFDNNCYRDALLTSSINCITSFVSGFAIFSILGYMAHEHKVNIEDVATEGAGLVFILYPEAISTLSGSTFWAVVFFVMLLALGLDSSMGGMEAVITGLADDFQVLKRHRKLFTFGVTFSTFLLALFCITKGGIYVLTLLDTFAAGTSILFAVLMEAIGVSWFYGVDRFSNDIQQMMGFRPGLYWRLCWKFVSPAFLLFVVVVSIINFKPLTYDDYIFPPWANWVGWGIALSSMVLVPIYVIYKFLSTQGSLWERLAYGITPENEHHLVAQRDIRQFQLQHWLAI
T3 sequence (P31645 whole entry): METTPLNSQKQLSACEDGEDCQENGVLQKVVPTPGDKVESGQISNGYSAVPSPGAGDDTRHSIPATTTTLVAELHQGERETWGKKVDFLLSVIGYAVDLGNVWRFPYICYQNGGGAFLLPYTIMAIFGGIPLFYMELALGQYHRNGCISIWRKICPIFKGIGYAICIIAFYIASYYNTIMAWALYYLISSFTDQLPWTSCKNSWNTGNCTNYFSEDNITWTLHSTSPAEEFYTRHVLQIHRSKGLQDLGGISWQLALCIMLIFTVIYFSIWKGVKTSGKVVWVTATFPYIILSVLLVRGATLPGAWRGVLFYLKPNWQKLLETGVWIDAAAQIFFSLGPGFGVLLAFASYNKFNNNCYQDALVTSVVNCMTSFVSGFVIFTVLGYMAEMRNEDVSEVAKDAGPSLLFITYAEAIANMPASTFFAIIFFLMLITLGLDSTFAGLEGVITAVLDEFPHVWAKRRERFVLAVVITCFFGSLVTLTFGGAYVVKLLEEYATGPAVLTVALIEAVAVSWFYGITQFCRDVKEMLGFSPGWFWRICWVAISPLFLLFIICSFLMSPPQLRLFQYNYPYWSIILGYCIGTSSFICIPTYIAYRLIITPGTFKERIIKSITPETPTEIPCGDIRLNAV

Turning to `[O-][S+](Cc1cccs1)C(c1ccccc1)c1ccc(F)cc1` (stereo not drawn) [Compound 6c, 2-((((4-fluorophenyl)(phenyl)methyl)sulfinyl)methyl)thiophene], the concentration for half-maximal inhibition (IC50) in assay [1] (setting [4]) is 10.1 ± 0.3 µM; in assay [2] (setting [5]) it was greater than 50 µM; in assay [3] (setting [6]), greater than 50 µM.

As for `[O-][S@@+](Cc1cccs1)[C@@H](c1ccccc1)c1ccccc1Cl` [Compound 6d, (S,S)-2-((((2-chlorophenyl)(phenyl)methyl)sulfinyl)methyl)thiophene], the figures for the IC50 in assay [1] (setting [4]), in assay [2] (setting [5]) and in assay [3] (setting [6]) were 14.4 ± 2.4 µM, greater than 50 µM and greater than 50 µM, respectively.

As to `[O-][S@+](Cc1cccs1)[C@@H](c1ccccc1)c1cccc(Cl)c1` [Compound 6e, (R,S)-2-((((3-chlorophenyl)(phenyl)methyl)sulfinyl)methyl)thiophene], the 50% inhibitory concentration (IC50) in assay [1] (setting [7]) is 14.1 ± 0.5 µM; in assay [2] (setting [8]), greater than 50 µM; in assay [3] (setting [9]) it was greater than 50 µM.

On to `[O-][S@+](Cc1cccs1)[C@@H](c1ccccc1)c1ccc(Cl)cc1` [Compound 6f, (R,S)-2-((((4-chlorophenyl)(phenyl)methyl)sulfinyl)methyl)thiophene], for which the results for the IC50 in assay [1] (setting [7]), in assay [2] (setting [8]) and in assay [3] (setting [9]) were 46 ± 1 µM, greater than 50 µM and greater than 50 µM, respectively.

With `[O-][S+](Cc1cccs1)C(c1ccccc1)c1ccccc1Br` (stereo not drawn) [Compound 6g, 2-((((2-bromophenyl)(phenyl)methyl)sulfinyl)methyl)thiophene], the IC50 in assay [1] (setting [7]) was 12.1 ± 1 µM; in assay [2] (setting [10]), greater than 50 µM; in assay [3] (setting [11]), greater than 50 µM.

With `[O-][S@+](Cc1cccs1)[C@@H](c1ccccc1)c1cccc(Br)c1` [Compound 6h, (R,S)-2-((((3-bromophenyl)(phenyl)methyl)sulfinyl)methyl)thiophene], the half-inhibitory concentration (IC50) was 15 ± 1 µM in assay [1] (setting [7]), greater than 50 µM in assay [2] and greater than 50 µM in assay [3] (setting [9]).

In the case of `[O-][S+](Cc1cccs1)C(c1ccccc1)c1ccccc1I` (stereo not drawn) [Compound 6i, 2-((((2-iodophenyl)(phenyl)methyl)sulfinyl)methyl)thiophene], the IC50 in assay [1] (setting [7]) was 20.3 ± 0.6 µM; in assay [2] (setting [10]), greater than 50 µM; in assay [3] (setting [11]), greater than 50 µM.

As to `[O-][S+](Cc1cccs1)C(c1ccccc1)c1cccc(I)c1` (stereo not drawn) [Compound 6j, 2-((((3-iodophenyl)(phenyl)methyl)sulfinyl)methyl)thiophene], the concentration for half-maximal inhibition (IC50) is 17.7 ± 2.2 µM in assay [1] (setting [7]), greater than 50 µM in assay [2] (setting [10]) and greater than 50 µM in assay [3] (setting [11]).

Turning to `[O-][S@+](Cc1cccs1)[C@@H](c1ccccc1)c1ccc(I)cc1` [Compound 6k, (R,S)-2-((((4-iodophenyl)(phenyl)methyl)sulfinyl)methyl)thiophene], the IC50 was 1.1 ± 0.3 µM in assay [1] (setting [7]), greater than 50 µM in assay [2] (setting [8]) and 3.8 ± 0.5 µM in assay [3] (setting [9]).

Regarding `Cc1ccccc1C(c1ccccc1)[S+]([O-])Cc1cccs1` (stereo not drawn) [Compound 6l, 2-(((phenyl(o-tolyl)methyl)sulfinyl)methyl)thiophene], the 50% inhibitory concentration (IC50) in assay [1] (setting [4]), in assay [2] (setting [5]) and in assay [3] (setting [6]) was greater than 50 µM throughout.

In the case of `Cc1cccc([C@H](c2ccccc2)[S@+]([O-])Cc2cccs2)c1` [Compound 6m, (R,S)-2-(((phenyl(m-tolyl)methyl)sulfinyl)methyl)thiophene], the IC50 in assay [1] (setting [7]), in assay [2] (setting [8]) and in assay [3] (setting [9]) was greater than 50 µM each time.

As for `Cc1ccc(C(c2ccccc2)[S+]([O-])Cc2cccs2)cc1` (stereo not drawn) [Compound 6n, 2-(((phenyl(p-tolyl)methyl)sulfinyl)methyl)thiophene], the concentration for half-maximal inhibition (IC50) in assay [1] (setting [4]), in assay [2] (setting [10]) and in assay [3] (setting [6]) was greater than 50 µM in each case.

Turning to `[O-][S+](Cc1cccs1)C(c1ccccc1)c1ccccc1C(F)(F)F` (stereo not drawn) [Compound 6o, 2-(((phenyl(2-(trifluoromethyl)phenyl)methyl)sulfinyl)methyl)thiophene], the half-maximal inhibitory concentration (IC50) in assay [1] (setting [7]), in assay [2] (setting [8]) and in assay [3] (setting [11]) was greater than 50 µM each time.

Turning to `[O-][S+](Cc1cccs1)C(c1ccccc1)c1cccc(C(F)(F)F)c1` (stereo not drawn) [Compound 6p, 2-(((phenyl(3-(trifluoromethyl)phenyl)methyl)sulfinyl)methyl)thiophene], the IC50 in assay [1] (setting [7]) was 22 ± 1 µM; in assay [2] (setting [10]), greater than 50 µM; in assay [3] (setting [9]) it was greater than 50 µM.

For the compound `[O-][S+](Cc1cccs1)C(c1ccccc1)c1ccc(C(F)(F)F)cc1` (stereo not drawn) [Compound 6q, 2-(((phenyl(4-(trifluoromethyl)phenyl)methyl)sulfinyl)methyl)thiophene], the IC50 in assay [1] (setting [7]) was 40 ± 9 µM; in assay [2] (setting [10]), greater than 50 µM; in assay [3] (setting [9]), greater than 50 µM.

`COc1ccccc1[C@H](c1ccccc1)[S@@+]([O-])Cc1cccs1` [Compound 6r, (S,S)-2-((((2-methoxyphenyl)(phenyl)methyl)sulfinyl)methyl)thiophene]: the half-inhibitory concentration (IC50) in assay [1] (setting [7]), in assay [2] (setting [8]) and in assay [3] (setting [9]) was greater than 50 µM throughout.

In the case of `COc1cccc(C(c2ccccc2)[S+]([O-])Cc2cccs2)c1` (stereo not drawn) [Compound 6s, 2-((((3-methoxyphenyl)(phenyl)methyl)sulfinyl)methyl)thiophene], the 50% inhibitory concentration (IC50) in assay [1] (setting [7]) was 5.41 ± 0.99 µM; in assay [2] (setting [10]), greater than 50 µM; in assay [3] (setting [9]) it was 35 ± 3 µM.

`COc1ccc([C@@H](c2ccccc2)[S@+]([O-])Cc2cccs2)cc1` [Compound 6t, (R,R)-2-((((4-methoxyphenyl)(phenyl)methyl)sulfinyl)methyl)thiophene]: the IC50 in assay [1] (setting [7]) is 17 ± 3 µM; in assay [2] (setting [8]), greater than 50 µM; in assay [3] (setting [9]), 11 ± 3 µM.

For the compound `[O-][S+](Cc1cccs1)C(c1ccc(F)cc1)c1ccc(Cl)cc1` (stereo not drawn) [Compound 6u, 2-((((4-chlorophenyl)(4-fluorophenyl)methyl)sulfinyl)methyl)thiophene], the results for the IC50 in assay [1] (setting [7]), in assay [2] (setting [10]) and in assay [3] (setting [11]) were 12 ± 2 µM, greater than 50 µM and greater than 50 µM, respectively.

Take `[O-][S@+](Cc1cccs1)[C@@H](c1ccccc1)c1ccccc1F` [Compound 7a, (R,S)-2-((((2-fluorophenyl)(phenyl)methyl)sulfinyl)methyl)thiophene]: the IC50 in assay [1] (setting [4]) was 8.25 ± 0.16 µM; in assay [2] (setting [5]) it was greater than 50 µM; in assay [3] (setting [6]), greater than 50 µM.

For `[O-][S+](Cc1cccs1)C(c1ccccc1)c1cccc(F)c1` (stereo not drawn) [Compound 7b, 2-((((3-fluorophenyl)(phenyl)methyl)sulfinyl)methyl)thiophene], the IC50 in assay [1] (setting [4]) was 2.3 ± 0.2 µM; in assay [2] (setting [5]) it was greater than 50 µM; in assay [3] (setting [6]) it was greater than 50 µM.

As to `[O-][S+](Cc1cccs1)C(c1ccccc1)c1ccc(F)cc1` (stereo not drawn) [Compound 7c, 2-((((4-fluorophenyl)(phenyl)methyl)sulfinyl)methyl)thiophene], the results for the IC50 in assay [1] (setting [4]), in assay [2] (setting [5]) and in assay [3] (setting [6]) were 2.1 ± 0.6 µM, greater than 50 µM and greater than 50 µM, respectively.

Consider `[O-][S@+](Cc1cccs1)[C@@H](c1ccccc1)c1ccccc1Cl` [Compound 7d, (R,S)-2-((((2-chlorophenyl)(phenyl)methyl)sulfinyl)methyl)thiophene], for which the “activity on DAT (reuptake inhibition), in words” value in assay [1] (at 50 µM) is “did not achieve ≥50% of radioligand displacement”. The 50% inhibitory concentration (IC50) in assay [1] (setting [4]), in assay [2] (setting [5]) and in assay [3] (setting [6]) was greater than 50 µM throughout. Further, the “activity on NET (reuptake inhibition), in words” value in assay [2] (setting [12]) is reported as “did not achieve ≥50% of radioligand displacement”. Also, the “activity on SERT (reuptake inhibition), in words” value in assay [3] (setting [12]) was “did not achieve ≥50% of radioligand displacement”.

Turning to `[O-][S@@+](Cc1cccs1)[C@@H](c1ccccc1)c1cccc(Cl)c1` [Compound 7e, (S,S)-2-((((3-chlorophenyl)(phenyl)methyl)sulfinyl)methyl)thiophene], the IC50 in assay [1] (setting [7]) is 0.63 ± 0.17 µM; in assay [2] (setting [8]), 29 ± 4 µM; in assay [3] (setting [9]), greater than 50 µM.

For `[O-][S@@+](Cc1cccs1)[C@@H](c1ccccc1)c1ccc(Cl)cc1` [Compound 7f, (S,S)-2-((((4-chlorophenyl)(phenyl)methyl)sulfinyl)methyl)thiophene], the half-inhibitory concentration (IC50) in assay [1] (setting [7]) was 4 ± 1 µM; in assay [2] (setting [8]), greater than 50 µM; in assay [3] (setting [9]), greater than 50 µM.
